Reference: patent publication US20150299125A1, “PRODRUG BIPYRIDYLAMINOPYRIDINES AS SYK INHIBITORS” (MERCK SHARP & DOHME CORP., priority 2012, published 2015)
Converted amounts (≈) assume the structure as drawn.

Columns and labels:
[1] = molecular target: T1, recombinant human GST-Syk (Homo sapiens, UniProt P43405); assay: Homogeneous Time-Resolved Fluorescence (HTRF) assay for the recombinant human Syk enzyme; type: biochemical; details: recombinant human GST-Syk 5 pM, ATP 25 μM, read-out: IC50
T1 construct: purchased Carna Biosciences 08-176
Procedure, shortened: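 Recombinant GST-hSyk phosphorylates a biotinylated peptide for 45 min at room temperature. Quenched with EDTA buffer containing 2 nM Eu-anti-phosphotyrosine antibody and 70 nM SA-APC; HTRF read after 30 min.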

[2] = Conversion of prodrug to parent in liver homogenate; type: in vitro ADME; details: prodrug 1 μM, liver S9 1 mg protein/mL, 37° C., pH 7.4, 2 h
Procedure: Conversion of Prodrug to Parent in Liver Homogenate:
(§1) The likely stability of prodrugs in the liver can be estimated by incubating a prodrug with liver homogenate. Incubations of prodrugs (1 μM) with liver S9 (1 mg protein/mL) were carried out at 37° C. in a phosphate buffer, pH 7.4. Control incubations contained BSA (1.1 mg/mL) instead of liver S9 microsomes. Aliquots were removed at 0, 5, 15, 30, 60 and 120 min, treated with 4 volumes of acetonitrile containing 2% formic acid and an internal standard, and centrifuged. The supernatants were analyzed by LC-MS/MS for prodrug disappearance and appearance of active drug. The half-life of the prodrug was calculated from the % prodrug remaining at different time points calculated from on the peak area ratio relative to t=0. The amount of active drug generated at the different time points was determined using a standard curve.

[3] = Conversion of prodrug to parent in intestine homogenate; type: in vitro ADME; details: prodrug 1 μM, intestine S9 1 mg protein/mL, 37° C., pH 7.4, 2 h
Procedure: Conversion of Prodrug to Parent in Intestine Homogenate:
as §1, with “intestine” for “liver”

[4] = Solubility in biorelevant fasted state simulated intestinal fluid (FaSSIF); type: physicochemical; details: 25 °C, fassif, kinetic from dmso stock, Solubility
Procedure, shortened: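 Compound from 10 mM DMSO stock diluted into FaSSIF (maximum solubility approximately 200 μM), equilibrated, then filtered by centrifugation through a 0.45 μm polypropylene membrane. Filtrate and a 100 μM standard analysed by HPLC/DAD; solubility = (sample peak area/standard peak area) × standard concentration.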

[5] = Conversion of prodrug to parent in in vitro biorelevant gastrointestinal tract media; type: in vitro ADME; details: 37° C.; for Conversion in SGF, time: simulated gastric fluid
Procedure: Conversion of Prodrug to Parent in In Vitro Biorelevant Gastrointestinal Tract Media: The likely stability of prodrugs in the gastrointestinal tract can be estimated by incubating a prodrug in simulated gastric and intestinal fluids; compounds were measured for stability in simulated gastric fluid (SGF), fasted state simulated intestinal fluid (FaSSIF), and fasted state simulated intestinal fluid plus pancreatin (FaSSIF+pancreatin). Prodrug stock solutions were made by diluting 2 mg of compound in 200 μL DMSO. A 10 mg/mL Pancreatin in FaSSIF stock solution was made by dissolving 10 mg Pancreatin in 1 mL FaSSIF. Samples were prepared by diluting 10 μL of compound stock solution into 990 μL of biorelevant media (990 μL SGF, 990 μL FaSSIF, or 940 μL FaSSIF plus 50 μL Pancreatin stock) in a 2 mL HPLC vial and vortexing the mixture for a few seconds. The samples were incubated at 37° C. and aliquots were removed for up to 24 hours and injected directly on an HPLC to determine the conversion of prodrug to active drug. In the case of compound precipitation upon sample preparation, an individual sample was prepared for each desired time point and the entire sample was diluted with a known volume of acetonitrile/water (50/50) to ensure compound dissolution before HPLC analysis.

SMILES | IC50 [1] | solubility [4] | Conversion in FaSSIF + Pancreatin, time ([5]; 3 h) | Conversion in FaSSIF, time ([5]; 5 h) | Conversion in SGF, time ([5]; 5 h) | also measured
COCCN(C)C(=O)OC(C)OC(=O)[C@H]1CC[C@H]([C@@](C)(O)c2ccc(-c3cc(C)cc(Nc4cc(C(F)F)ccn4)n3)cn2)CC1 (mixture of isomers) [Example 4-1, 1-{[(2-methoxyethyl)(methyl)carbamoyl]oxy}ethyl trans-4-[(1R)-1-(6-{[4-(difluoromethyl)pyridin-2-yl]amino}-4-methyl-2,3′-bipyridin-6′-yl)-1-hydroxyethyl]cyclohexanecarboxylate] | 20.7 nM |  |  |  |  | Prodrug concentration at 2 h [2]: 0 µM; Prodrug concentration at 2 h [3]: 0.539 µM
Cc1cc(Nc2cc(C(F)F)ccn2)nc(-c2ccc([C@](C)(O)[C@H]3CC[C@H](C(=O)OCC4CCNCC4)CC3)nc2)c1 [Example 1-21, piperidin-4-ylmethyl trans-4-[(1R)-1-(6-{[4-(difluoromethyl)pyridin-2-yl]amino}-4-methyl-2,3′-bipyridin-6′-yl)-1-hydroxyethyl] cyclohexanecarboxylate] | 2.3 nM | 167 µM (≈ 96.8 µg/mL) | 100%, 3 h | 0%, 5 h | 0%, 5 h | 
CNCCCOC(=O)[C@H]1CC[C@H]([C@@](C)(O)c2ccc(-c3cc(C)cc(Nc4cc(C(F)F)ccn4)n3)cn2)CC1 [Example 1-22, 3-(methylamino)propyl trans-4-[(1R)-1-(6-{[4-(difluoromethyl)pyridin-2-yl]amino}-4-methyl-2,3′-bipyridin-6′-yl)-1-hydroxyethyl] cyclohexanecarboxylate] | 1.8 nM | 183 µM (≈ 101 µg/mL) | 100%, 3 h | 0%, 5 h | 0%, 5 h | 
Cc1cc(Nc2cc(C(F)F)ccn2)nc(-c2ccc([C@](C)(O)[C@H]3CC[C@H](C(=O)O[C@H]4CC[C@H](N)CC4)CC3)nc2)c1 [Example 1-23, trans-4-aminocyclohexyl trans-4-[(1R)-1-(6-{[4-(difluoromethyl)pyridin-2-yl]amino}-4-methyl-2,3′-bipyridin-6′-yl)-1-hydroxyethyl] cyclohexanecarboxylate] | 1.6 nM | 131 µM (≈ 75.9 µg/mL) | 100%, 3 h | 0%, 5 h | 0%, 5 h | 
Cc1cc(Nc2cc(C(F)F)ccn2)nc(-c2ccc([C@](C)(O)[C@H]3CC[C@H](C(=O)Oc4ccc(C#N)cc4)CC3)nc2)c1 [Example 1-29, 4-cyanophenyl trans-4-[(1R)-1-(6-{[4-(difluoromethyl)pyridin-2-yl]amino}-4-methyl-2,3′-bipyridin-6′-yl)-1-hydroxyethyl] cyclohexanecarboxylate] | 7.3 nM |  |  | 0%, 5 h | 0%, 5 h | Conversion in FaSSIF + Pancreatin, time ([5]; 24 h): 44%, 24 h
Cc1cc(Nc2cc(C(F)F)ccn2)nc(-c2ccc([C@](C)(O)[C@H]3CC[C@H](C(=O)OCOC(=O)OCCOCCOCCOCCO)CC3)nc2)c1 [Example 2-4, 15-hydroxy-3-oxo-2,4,7,10,13-pentaoxapentadec-1-yl trans-4-[(1R)-1-(6-{[4-(difluoromethyl)pyridin-2-yl]amino}-4-methyl-2,3′-bipyridin-6′-yl)-1-hydroxyethyl]cyclo hexanecarboxylate] | 5.3 nM |  | 100%, 3 h |  | 0%, 5 h | Conversion in FaSSIF, time ([5]; 24 h): 5%, 24 h
CCOCCOC(=O)OCOC(=O)[C@H]1CC[C@H]([C@@](C)(O)c2ccc(-c3cc(C)cc(Nc4cc(C(F)F)ccn4)n3)cn2)CC1 [Example 2-6, {[(2-ethoxyethoxy)carbonyl]oxy}methyl trans-4-[(1R)-1-(6-{[4-(difluoromethyl)pyridin-2-yl]amino}-4-methyl-2,3′-bipyridin-6′-yl)-1-hydroxyethyl]cyclo hexanecarboxylate] | < 0.5 nM |  | 95%, 3 h | 0%, 5 h | 0%, 5 h | 
Cc1cc(Nc2cc(C(F)F)ccn2)nc(-c2ccc([C@](C)(O)[C@H]3CC[C@H](C(=O)OCOC(=O)OCCCCCCN(C)C)CC3)nc2)c1 [Example 2-7, [({[6-(dimethylamino)hexyl]oxy}carbonyl)oxy]methyl trans-4-[(1R)-1-(6-{[4-(difluoromethyl)pyridin-2-yl]amino}-4-methyl-2,3′-bipyridin-6′-yl)-1-hydroxyethyl]cyclo hexanecarboxylate] | 78 nM | 119 µM (≈ 81.4 µg/mL) | 20%, 3 h | 0%, 5 h | 0%, 5 h | 
Cc1cc(Nc2cc(C(F)F)ccn2)nc(-c2ccc([C@](C)(O)[C@H]3CC[C@H](C(=O)OCOC(=O)OCC4CCOCC4)CC3)nc2)c1 [Example 2-9, {[(tetrahydro-2H-pyran-4-ylmethoxy)carbonyl]oxy}methyl trans-4-[(1R)-1-(6-{[4-(difluoromethyl)pyridin-2-yl]amino}-4-methyl-2,3′-bipyridin-6′-yl)-1-hydroxyethyl]cyclo hexanecarboxylate] | 27.2 nM |  | 65%, 3 h | 0%, 5 h |  | Conversion in SGF, time ([5]; 3 h): 2%, 3 h
CCOCCOCCOC(=O)OC(OC(=O)[C@H]1CC[C@H]([C@@](C)(O)c2ccc(-c3cc(C)cc(Nc4cc(C(F)F)ccn4)n3)cn2)CC1)C(C)C (stereo partly drawn) [Example 2-17, 1-(1-methylethyl)-3-oxo-2,4,7,10-tetraoxadodec-1-yl trans-4-[(1R)-1-(6-{[4-(difluoromethyl)pyridin-2-yl]amino}-4-methyl-2,3′-bipyridin-6′-yl)-1-hydroxyethyl]cyclo hexanecarboxylate] | < 0.5 nM |  |  |  |  | Prodrug concentration at 2 h [2]: 0 µM; Prodrug concentration at 2 h [3]: 0.371 µM
Cc1cc(Nc2cc(C(F)F)ccn2)nc(-c2ccc([C@](C)(O)[C@H]3CC[C@H](C(=O)OCOC(=O)C4CCNCC4)CC3)nc2)c1 [Example 3-1] | 27 nM | 147 µM (≈ 91.7 µg/mL) | 100%, 3 h |  | 0%, 5 h | Conversion in FaSSIF, time ([5]; 3 h): 100%, 3 h
Cc1cc(Nc2cc(C(F)F)ccn2)nc(-c2ccc([C@](C)(O)[C@H]3CC[C@H](C(=O)OCOC(=O)OCCCS(C)(=O)=O)CC3)nc2)c1 [Example 7-2, ({[3-(Methylsulfonyl)propoxy]carbonyl}oxy)methyl trans-4-[(1R)-1-(6-{[4-(difluoromethyl)pyridin-2-yl]amino}-4-methyl-2,3′-bipyridin-6′-yl)-1-hydroxyethyl]cyclohexanecarboxylate] | 7.5 nM |  |  |  |  | Prodrug concentration at 2 h [2]: 0.12 µM; Prodrug concentration at 2 h [3]: 0.092 µM
Cc1cc(Nc2cc(C(F)F)ccn2)nc(-c2ccc([C@](C)(O)[C@H]3CC[C@H](C(=O)OCOP(=O)(O)O)CC3)nc2)c1 [Example 10-1, (Phosphonooxy)methyl trans-4-[(1R)-1-(6-{[4-(difluoromethyl)pyridin-2-yl]amino}-4-methyl-2,3′-bipyridin-6′-yl)-1-hydroxyethyl]cyclohexanecarboxylate] | < 0.5 nM |  |  | 20%, 5 h | 5%, 5 h | Conversion in FaSSIF + Pancreatin, time ([5]; 5 h): 50%, 5 h
